Reference: PubChem BioAssay AID300 (DTP/NCI, 2004)
Where “and” joins values, the source holds several entries; their conditions need not be identical. Equal values may be shown once. Results filed as inconclusive are left out. The calls were made as follows: active = survival T/C of 150% or more; inactive = T/C below 125% in these data. *1 amine or outer side, *2 acyl side, *3 side chain or, on linkers, in order; H or OH if unused. Where a SMILES comes first, the peptide text is derived from it. Bridges are numbered along the chain shown (N, C = ends). Roman numbers before positions name the chains, in order. [ ]: non-standard residue; d: D form. Actinocin(9to1) = Cc1c2oc3c(C)ccc(C(=O)[*:1])c3nc-2c(C(=O)[*:2])c(N)c1=O; aThr = C[C@H](O)[C@H](N)C(=O)O; NMeV = CN[C@H](C(=O)O)C(C)C; Sar = CNCC(=O)O

Test system: Madison 109 lung carcinoma i.m., mice, median survival
Assay: NCI In Vivo Anticancer Drug Screen. Data for tumor model Madison 109 Lung Carcinoma (intramuscular) in unknown mice
Conditions: endpoint: median survival time, higher = longer survival
Protocol: The antitumor activity of compounds was measured in mice bearing transplantable tumors. Survival or tumor size were measured and the results are expressed as the measurement made in the treated group (T) divided by the measurement made in the vehicle treated control group (C). The tumor model used in this assay is Madison 109 Lung Carcinoma (intramuscular) in unknown mice

[1] = dose: 1.5 mg/kg/injection, schedule: Q01DX009 (ip), vehicle: water
[2] = dose: 5.5 mg/kg/injection, schedule: Q01DX005 (ip), vehicle: water
[3] = dose: 52.5 mg/kg/injection, schedule: Q01DX005 (ip), vehicle: water

Measured: T/C

c1ccc([C@H]2CN3CCSC3=N2)cc1
inactive: dose: 0.75 mg/kg/injection, schedule: Q01DX009 (ip), vehicle: water 114 % of control | [1] 122 % of control | dose: 3.0 mg/kg/injection, schedule: Q01DX009 (ip), vehicle: water 97 % of control | dose: 6.0 mg/kg/injection, schedule: Q01DX009 (ip), vehicle: water 108 % of control

COc1cccc2c1C(=O)c1c(O)c3c(c(O)c1C2=O)CC(O)(C(=O)CO)CC3OC1CC(N)C(O)C(C)O1 (centres undefined)
inactive: [2] 100 % of control | [3] 102 % of control

O=C(O)CCCc1ccc(N(CCCl)CCCl)cc1
inactive: dose: 1.5 mg/kg/injection, schedule: Q01DX009 (ip), vehicle: saline 105 % of control

CC(=O)c1cccc(NC2C(N)C(NC(=O)N(C)C)(C(C)O)C(C)(O)C2(O)COC(=O)c2c(C)cccc2O)c1 (centres undefined)
inactive: dose: 0.05 mg/kg/injection, schedule: Q01DX009 (ip), vehicle: other 111 % of control | dose: 0.3 mg/kg/injection, schedule: Q01DX009 (ip), vehicle: other 96 % of control | dose: 0.6 mg/kg/injection, schedule: Q01DX009 (ip), vehicle: other 119 % of control

NC(C=O)C(O)C(O)C(O)CO (centres undefined)
inactive: dose: 400.0 mg/kg/injection, schedule: Q01DX009 (ip), vehicle: saline 98 % of control | dose: 800.0 mg/kg/injection, schedule: Q01DX009 (ip), vehicle: saline 93 % of control | dose: 1600.0 mg/kg/injection, schedule: Q01DX009 (ip), vehicle: saline 96 % of control | dose: 3200.0 mg/kg/injection, schedule: Q01DX009 (ip), vehicle: saline 110 % of control

COC1=C(OC)C(=O)C(C/C=C(\C)CC/C=C(\C)CC/C=C(\C)CC/C=C(\C)CC/C=C(\C)CC/C=C(\C)CC/C=C(\C)CC/C=C(\C)CC/C=C(\C)CCC=C(C)C)=C(C)C1=O
inactive: dose: 1.0 mg/kg/injection, schedule: Q01DX009 (ip), vehicle: other 95 % of control | dose: 2.0 mg/kg/injection, schedule: Q01DX009 (ip), vehicle: other 97 % of control | dose: 4.0 mg/kg/injection, schedule: Q01DX009 (ip), vehicle: other 94 % of control | dose: 8.0 mg/kg/injection, schedule: Q01DX009 (ip), vehicle: other 94 % of control | dose: 16.0 mg/kg/injection, schedule: Q01DX009 (ip), vehicle: other 102 % of control

COc1cccc2c1C(=O)c1c(O)c3c(c(O)c1C2=O)CC(O)(C(C)=O)CC3OC1CC(N)C(O)C(C)O1 (centres undefined)
inactive: [2] 123 % of control | dose: 8.0 mg/kg/injection, schedule: Q01DX005 (ip), vehicle: water 123 % of control | dose: 16.5 mg/kg/injection, schedule: Q01DX005 (ip), vehicle: water 119 % of control and 120 % of control | dose: 24.0 mg/kg/injection, schedule: Q01DX005 (ip), vehicle: water 73 % of control | dose: 27.5 mg/kg/injection, schedule: Q01DX005 (ip), vehicle: water 52 % of control | dose: 31.5 mg/kg/injection, schedule: Q01DX005 (ip), vehicle: water 123 % of control | dose: 40.0 mg/kg/injection, schedule: Q01DX005 (ip), vehicle: water 114 % of control | [3] 114 % of control

Nc1n[nH]c(N)n1
inactive: dose: 300.0 mg/kg/injection, schedule: Q01DX009 (ip), vehicle: water 118 % of control | dose: 500.0 mg/kg/injection, schedule: Q01DX009 (ip), vehicle: water 118 % of control | dose: 600.0 mg/kg/injection, schedule: Q01DX009 (ip), vehicle: water 100 % of control

CO[C@H](C(=O)[C@@H](O)[C@@H](C)O)[C@@H]1Cc2cc3cc(OC4CC(OC5CC(O)C(O)C(C)O5)C(O)C(C)O4)c(C)c(O)c3c(O)c2C(=O)[C@H]1OC1CC(OC2CC(OC3CC(C)(O)C(O)C(C)O3)C(O)C(C)O2)C(O)C(C)O1 (some centres undefined)
inactive: dose: 0.05 mg/kg/injection, schedule: Q01DX009 (ip), vehicle: water 100 % of control | dose: 0.1 mg/kg/injection, schedule: Q01DX009 (ip), vehicle: water 100 % of control | dose: 0.2 mg/kg/injection, schedule: Q01DX009 (ip), vehicle: water 115 % of control | dose: 0.3 mg/kg/injection, schedule: Q01DX009 (ip), vehicle: water 86 % of control and 110 % of control | dose: 0.4 mg/kg/injection, schedule: Q01DX009 (ip), vehicle: water 108 % of control and 115 % of control | dose: 0.5 mg/kg/injection, schedule: Q01DX009 (ip), vehicle: water 103 % of control

COc1cc2c(c(OC)c1OC)-c1ccc(OC)c(=O)cc1[C@@H](NC(C)=O)CC2
inactive: dose: 0.06 mg/kg/injection, schedule: Q01DX009 (ip), vehicle: water 100 % of control | dose: 0.12 mg/kg/injection, schedule: Q01DX009 (ip), vehicle: water 90 % of control | dose: 0.24 mg/kg/injection, schedule: Q01DX009 (ip), vehicle: water 100 % of control

COc1cccc2c1C(=O)c1c(O)c3c(c(O)c1C2=O)C[C@@](O)(C(C)=O)C[C@@H]3OC1CC(N)C(O)C(C)O1 (some centres undefined)
inactive: dose: 0.25 mg/kg/injection, schedule: Q04DX003 (ip), vehicle: water 108 % of control | dose: 0.5 mg/kg/injection, schedule: Q04DX003 (ip), vehicle: water 120 % of control | dose: 1.0 mg/kg/injection, schedule: Q01DX009 (ip), vehicle: water 111 % of control | dose: 1.0 mg/kg/injection, schedule: Q04DX003 (ip), vehicle: water 94 % of control | [1] 55 % of control | dose: 1.5 mg/kg/injection, schedule: Q04DX003 (ip), vehicle: water 122 % of control | dose: 2.5 mg/kg/injection, schedule: Q01DX009 (ip), vehicle: water 32 % of control

Cc1c2oc3c(C)ccc(C(=O)N[C@@H]4C(=O)N[C@H](C(C)C)C(=O)N5CCC[C@H]5C(=O)N(C)CC(=O)N(C)[C@@H](C(C)C)C(=O)O[C@H]4C)c3nc-2c(C(=O)N[C@@H]2C(=O)N[C@H](C(C)C)C(=O)N3CCC[C@H]3C(=O)N(C)CC(=O)N(C)[C@@H](C(C)C)C(=O)O[C@H]2C)c(N)c1=O (I: [aThr][dV]P[Sar][NMeV] / II: [aThr][dV]P[Sar][NMeV]; ester I:1-I:C, II:1-II:C; linker I:N-II:N via Actinocin(9to1))
inactive: dose: 0.04 mg/kg/injection, schedule: Q02DX009 (ip), vehicle: water 100 % of control | dose: 0.05 mg/kg/injection, schedule: Q02DX009 (ip), vehicle: water 108 % of control | dose: 0.05 mg/kg/injection, schedule: Q03DX009 (ip), vehicle: water 110 % of control | dose: 0.05 mg/kg/injection, schedule: Q04DX009 (ip), vehicle: water 106 % of control | dose: 0.06 mg/kg/injection, schedule: Q02DX009 (ip), vehicle: water 100 % of control | dose: 0.08 mg/kg/injection, schedule: Q02DX009 (ip), vehicle: water 121 % of control | dose: 0.08 mg/kg/injection, schedule: Q04DX009 (ip), vehicle: water 110 % of control | dose: 0.1 mg/kg/injection, schedule: Q01DX001 (ip), vehicle: water 112 % of control | dose: 0.2 mg/kg/injection, schedule: Q01DX001 (ip), vehicle: water 110 % of control | dose: 0.4 mg/kg/injection, schedule: Q01DX001 (ip), vehicle: water 110 % of control

CO[C@H]1/C=C/O[C@@]2(C)Oc3c(C)c(O)c4c(O)c(c(/C=N/N5C(C)CN(Cc6ccccc6)CC5C)c(O)c4c3C2=O)NC(=O)/C(C)=C\C=C\[C@H](C)[C@H](O)[C@@H](C)[C@@H](O)[C@@H](C)[C@H](OC(C)=O)[C@@H]1C (some centres undefined)
inactive: dose: 16.0 mg/kg/injection, schedule: Q03HX008 (ip), vehicle: saline 114 % of control | dose: 16.0 mg/kg/injection, schedule: Q03HX024 (ip), vehicle: saline 101 % of control | dose: 32.0 mg/kg/injection, schedule: Q03HX008 (ip), vehicle: saline 116 % of control | dose: 64.0 mg/kg/injection, schedule: Q01DX009 (ip), vehicle: saline 108 % of control | dose: 64.0 mg/kg/injection, schedule: Q03HX008 (ip), vehicle: saline 109 % of control | dose: 64.0 mg/kg/injection, schedule: Q04DX003 (ip), vehicle: saline 103 % of control | dose: 128.0 mg/kg/injection, schedule: Q01DX001 (ip), vehicle: saline 105 % of control | dose: 128.0 mg/kg/injection, schedule: Q04DX003 (ip), vehicle: saline 106 % of control | dose: 256.0 mg/kg/injection, schedule: Q01DX001 (ip), vehicle: saline 95 % of control

O=CC(NC(=O)N(CCCl)N=O)C(O)C(O)C(O)CO (centres undefined)
inactive: dose: 5.0 mg/kg/injection, schedule: Q01DX001 (ip), vehicle: saline 108 % of control | dose: 8.4 mg/kg/injection, schedule: Q01DX001 (ip), vehicle: saline 106 % of control | dose: 14.0 mg/kg/injection, schedule: Q01DX001 (ip), vehicle: saline 105 % of control | dose: 23.0 mg/kg/injection, schedule: Q01DX001 (ip), vehicle: saline 96 % of control
